Experimental data reported in PMC5289647, “L-glutamine Induces Expression of Listeria monocytogenes Virulence Genes” (PLoS Pathogens, 2017).

Tests used:
GlnPQ = target: T1, GlnPQ (Listeria monocytogenes, UniProt A0A0H3GES4); assay: radiolabelled uptake by intact bacteria, rapid filtration; format: cell-based; conditions: PBS pH 7.4, 1.6 mM MgSO4, 1% glucose, 37 °C; labelled compound; mixed with unlabelled L-glutamine
T1 construct: gene LMRG_02270; native full-length ABC importer in L. monocytogenes cells; uptake compared with glnPQ deletion and complemented strains; glnP locus also printed as LMRG_02770 (apparent misprint)

[1] = target: T2, SBP domain of LMRG_02270 (GlnPQ SBP; GlnP) (Listeria monocytogenes, UniProt A0A0H3GES4); assay: isothermal titration calorimetry; format: binding
T2 construct: SBP domain only (residues 29-254), signal peptide (first 28 residues) and transmembrane domain removed; N-terminal His-tag (pET-19b), codon-optimised synthetic gene; E. coli BL21-Gold (DE3); locus also printed as LMRG_02770 (apparent misprint)
T2 sequence (A0A0H3GES4 entry or part of it): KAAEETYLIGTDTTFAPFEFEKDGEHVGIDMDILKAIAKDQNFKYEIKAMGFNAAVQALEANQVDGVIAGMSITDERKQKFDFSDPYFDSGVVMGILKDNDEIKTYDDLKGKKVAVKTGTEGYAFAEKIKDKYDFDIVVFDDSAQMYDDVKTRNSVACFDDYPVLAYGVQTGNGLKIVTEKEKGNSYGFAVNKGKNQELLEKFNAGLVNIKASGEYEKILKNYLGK

T1 sequence (A0A0H3GES4 entry or part of it): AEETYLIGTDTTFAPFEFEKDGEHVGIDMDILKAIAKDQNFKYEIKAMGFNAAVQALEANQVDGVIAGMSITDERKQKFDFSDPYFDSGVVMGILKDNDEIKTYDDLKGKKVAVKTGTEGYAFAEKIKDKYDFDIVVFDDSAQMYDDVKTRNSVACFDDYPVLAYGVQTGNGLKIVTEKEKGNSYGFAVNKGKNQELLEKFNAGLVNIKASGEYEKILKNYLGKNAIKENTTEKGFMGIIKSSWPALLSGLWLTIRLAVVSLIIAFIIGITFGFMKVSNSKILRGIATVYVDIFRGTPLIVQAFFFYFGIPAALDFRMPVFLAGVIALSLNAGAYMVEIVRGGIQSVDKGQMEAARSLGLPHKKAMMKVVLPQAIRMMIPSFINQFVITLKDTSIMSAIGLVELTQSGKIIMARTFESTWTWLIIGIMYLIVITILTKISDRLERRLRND
T1 sequence (A0A0H3GF44 entry or part of it, further chain): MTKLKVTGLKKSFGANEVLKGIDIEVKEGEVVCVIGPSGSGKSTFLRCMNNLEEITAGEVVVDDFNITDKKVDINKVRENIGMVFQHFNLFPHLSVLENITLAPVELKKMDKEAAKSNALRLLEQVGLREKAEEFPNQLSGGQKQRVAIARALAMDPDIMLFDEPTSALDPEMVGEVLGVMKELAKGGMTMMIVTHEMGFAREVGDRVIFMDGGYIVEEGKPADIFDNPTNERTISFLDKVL

SMILES | L-glutamine uptake (GlnPQ) | Kd [1] [µM]
NC(=O)CC[C@H](N)C(=O)O [3H L-glutamine] | the rapid uptake of L-glutamine measured in the transport experiments is indeed mediated by an active | 
NC(=O)CC[C@H](N)C(=O)O [L-glutamine] |  | 4.7
